Molecular target: T1, KIT (Homo sapiens, UniProt P10721)
T1 construct: recombinant cytoplasmic portion of KIT, wild type (ProQinase #0997-0000-1)
Test: MicroScale Thermophoresis (MST)
Format: binding

T1 sequence (P10721 544-976 limits assumed): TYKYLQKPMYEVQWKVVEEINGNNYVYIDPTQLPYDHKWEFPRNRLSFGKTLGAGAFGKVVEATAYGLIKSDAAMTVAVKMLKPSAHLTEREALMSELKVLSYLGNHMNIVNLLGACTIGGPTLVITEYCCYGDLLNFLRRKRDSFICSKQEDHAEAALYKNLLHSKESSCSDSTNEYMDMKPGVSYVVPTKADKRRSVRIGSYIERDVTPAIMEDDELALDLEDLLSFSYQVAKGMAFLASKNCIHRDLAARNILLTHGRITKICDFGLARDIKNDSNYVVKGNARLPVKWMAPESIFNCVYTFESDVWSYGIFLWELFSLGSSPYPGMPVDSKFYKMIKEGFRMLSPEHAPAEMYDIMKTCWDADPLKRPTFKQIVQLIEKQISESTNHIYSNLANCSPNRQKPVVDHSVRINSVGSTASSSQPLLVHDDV

Compound | Kd
Cn1cc(-c2ccc3c(c2)CCN3C(=O)Cc2cccc(C(F)(F)F)c2)c2c(N)ncnc21 [GSK414, 7-methyl-5-(1-{[3-(trifluoromethyl)phenyl]acetyl}-2,3-dihydro-1H-indol-5-yl)-7H-p yrrolo[2,3-d]pyrimidin-4-amine] | 0.664 ± 0.294 µM
CC(C)(C)c1nc(-c2ccc(NC(=O)Nc3cccc(C(F)(F)F)c3)c3ccccc23)c2c(N)nccn12 [KIRA6] | 10.8 ± 2.9 µM
